Tests used:
Assay type in all cases: cell-based
[1] = test system: Staphylococcus aureus Oxford; assay: conventional MIC assay, Staphylococcus aureus Oxford; conditions: against Staphylococcus aureus Oxford
Method: (§1) Compounds of the present invention were assessed for anti-bacterial activity in a conventional MIC assay against a range of pathogenic organisms.

[2] = test system: Streptococcus pneumoniae 1629; assay: conventional MIC assay, Streptococcus pneumoniae 1629; conditions: against Streptococcus pneumoniae 1629
Method: as §1

[3] = test system: Moraxella catarrhalis 1502; assay: conventional MIC assay, Moraxella catarrhalis 1502; conditions: against Moraxella catarrhalis 1502
Method: as §1

[4] = test system: Haemophilus influenzae Q1; assay: conventional MIC assay, Haemophilus influenzae Q1; conditions: against Haemophilus influenzae Q1
Method: as §1

Measured: MIC

C=C[C@]1(C)C[C@@H](OC(=O)NC(=O)O[C@H]2COC[C@H]2OC(N)=O)[C@]2(C)[C@H](C)CC[C@]3(CCC(=O)[C@H]32)[C@@H](C)[C@@H]1O (racemic) [Example 118, Mutilin 14-[N-(cis-4-carbamoyloxytetrahydrofuran-3-yloxycarbonyl)]carbamate]
≤ 4 µg/mL: all assays above

C=C[C@]1(C)C[C@@H](OC(=O)NC(=O)OCc2ncc(C(N)=O)c(N)n2)[C@]2(C)[C@H](C)CC[C@]3(CCC(=O)[C@H]32)[C@@H](C)[C@@H]1O [Example 116, Mutilin 14-[N-(4-amino-5-carboxamidopyrimidin-2-ylmethoxycarbonyl)]carbamate]
≤ 4 µg/mL: all assays above

C=C[C@]1(C)C[C@@H](OC(=O)NC(=O)OCS(C)(=O)=O)[C@]2(C)[C@H](C)CC[C@]3(CCC(=O)[C@H]32)[C@@H](C)[C@@H]1O [Example 117, Mutilin 14-[N-(methylsulfonylmethoxycarbonyl)]carbamate]
≤ 4 µg/mL: all assays above

C=C[C@]1(C)C[C@@H](OC(=O)NC(=O)OCc2cnc(N)c(C(N)=O)n2)[C@]2(C)[C@H](C)CC[C@]3(CCC(=O)[C@H]32)[C@@H](C)[C@@H]1O [Example 119]
≤ 4 µg/mL: all assays above

C=C[C@]1(C)C[C@@H](OC(=O)NC(=O)OCCN2CCN(C=O)CC2)[C@]2(C)[C@H](C)CC[C@]3(CCC(=O)[C@H]32)[C@@H](C)[C@@H]1O [Example 120, Mutilin 14-[N-(2-(4-formylpiperazin-1-yl)ethyloxycarbonyl)]carbamate]
≤ 4 µg/mL: all assays above

C=C[C@]1(C)C[C@@H](OC(=O)NC(=O)OCCN2CCN(S(N)(=O)=O)CC2)[C@]2(C)[C@H](C)CC[C@]3(CCC(=O)[C@H]32)[C@@H](C)[C@@H]1O [Example 121]
≤ 4 µg/mL: all assays above

C=C[C@]1(C)C[C@@H](OC(=O)NC(=O)O[C@@H]2CO[C@H]3[C@@H]2OC[C@@H]3N)[C@]2(C)[C@H](C)CC[C@]3(CCC(=O)[C@H]32)[C@@H](C)[C@@H]1O [Example 122, Mutilin 14-[N-(((3R,3aR,6S,6aR)-6-amino-hexahydrofuro[3,2-b]furan-3-yl)oxycarbonyl)]carbamate]
≤ 4 µg/mL: all assays above

C=C[C@]1(C)C[C@@H](OC(=O)NC(=O)O[C@@H]2CCN(CC#N)C2)[C@]2(C)[C@H](C)CC[C@]3(CCC(=O)[C@H]32)[C@@H](C)[C@@H]1O [Example 123, Mutilin 14-[N-(1-cyanomethylpyrrolidin-3-(R)-yloxycarbonyl)]carbamate]
≤ 4 µg/mL: all assays above

C=C[C@]1(C)C[C@@H](OC(=O)NC(=O)O[C@H]2CN[C@H](C#N)C2)[C@]2(C)[C@H](C)CC[C@]3(CCC(=O)[C@H]32)[C@@H](C)[C@@H]1O [Example 126, Mutilin 14-[N-(5-(S)-cyanopyrrolidin-3-(R)-yloxycarbonyl)]carbamate]
≤ 4 µg/mL: all assays above

C=C[C@]1(C)C[C@@H](OC(=O)NC(=O)OC2CN(CC(N)=O)C2)[C@]2(C)[C@H](C)CC[C@]3(CCC(=O)[C@H]32)[C@@H](C)[C@@H]1O [Example 128, Mutilin 14-[N-(1-carbamoylmethylazetidin-3-yloxycarbonyl)]-carbamate]
≤ 4 µg/mL: all assays above

C=C[C@]1(C)C[C@@H](OC(=O)NC(=O)OC2CN(CC#N)C2)[C@]2(C)[C@H](C)CC[C@]3(CCC(=O)[C@H]32)[C@@H](C)[C@@H]1O [Example 129, Mutilin 14-[N-(1-cyanomethylazetidin-3-yloxycarbonyl)]-carbamate]
≤ 4 µg/mL: all assays above

C=C[C@]1(C)C[C@@H](OC(=O)NC(=O)OC2CN(N)C2)[C@]2(C)[C@H](C)CC[C@]3(CCC(=O)[C@H]32)[C@@H](C)[C@@H]1O [Example 130, Mutilin 14-[N-(1-aminoazetidin-3-yloxycarbonyl)]-carbamate]
≤ 4 µg/mL: all assays above
